Experimental data: paper PMC11323223 (Bioorganic chemistry, 2022)
“And” between values parts separate entries of the source, which are not always exact repeats. Equal values may be shown once. Read-outs that look alike come from different tables or passages of the source.

Key:
[1] = target: T1, FABP3 (Homo sapiens, UniProt P05413); settings: read-out: FABP3 Ki; cited from earlier work
[2] = target: T2, FABP7 (Homo sapiens, UniProt O15540); settings: read-out: FABP7 Ki; cited from earlier work
[3] = target: FABP5 (Homo sapiens, UniProt Q01469); experiment: Fluorescence displacement binding assay; settings: for FABP5/3 SI (selectivity index): FABP5 over FABP3, from Ki values; for FABP5/7 SI (selectivity index): FABP5 over FABP7, from Ki values; for Ki: read-out: FABP5 Ki, average ± S.E. of at least three independent experiments
[4] = target: T1, FABP3; experiment: Fluorescence displacement binding assay; settings: for Ki: read-out: FABP3 Ki, average ± S.E. of at least three independent experiments
[5] = target: T2, FABP7; experiment: Fluorescence displacement binding assay; settings: for FABP7/3 SI (selectivity index): FABP7 over FABP3, from Ki values; for FABP7/5 SI (selectivity index): FABP7 over FABP5, from Ki values; for Ki: read-out: FABP7 Ki, average ± S.E. of at least three independent experiments
[6] = system: CFA-induced thermal hyperalgesia; experiment: CFA-induced thermal hyperalgesia; type: in vivo; settings: 20 mg/kg, i.p., mice, 90 min after administration, n = 6

T1 sequence (P05413 whole entry): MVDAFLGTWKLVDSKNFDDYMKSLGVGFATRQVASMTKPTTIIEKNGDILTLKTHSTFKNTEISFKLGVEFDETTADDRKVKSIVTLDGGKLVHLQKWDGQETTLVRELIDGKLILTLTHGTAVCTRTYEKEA
T2 sequence (O15540 whole entry): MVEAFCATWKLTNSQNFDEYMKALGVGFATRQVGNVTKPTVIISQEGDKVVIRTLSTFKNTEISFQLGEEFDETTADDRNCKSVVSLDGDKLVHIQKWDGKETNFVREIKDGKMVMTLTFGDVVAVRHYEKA
FABP5, sequence (Q01469 whole entry): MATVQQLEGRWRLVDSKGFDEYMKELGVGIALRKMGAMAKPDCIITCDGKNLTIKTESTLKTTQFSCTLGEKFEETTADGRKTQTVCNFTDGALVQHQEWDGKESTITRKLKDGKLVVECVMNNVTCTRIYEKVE

Structure (SMILES) | Ki [3] [µM] | Ki [4] [µM] | Ki [5] [µM] | other results
COc1ccccc1C1[C@H](C(=O)O)[C@H](c2ccccc2OC)[C@H]1C(=O)OCC1c2ccccc2-c2ccccc21 (stereo partly shown) [L3] | – | – | – | Ki [1]: 25.3 ± 4.57 µM; Ki [2]: 14.3 ± 0.41 µM
O=C1CCc2cc(-c3cccc(OC(=O)C4C(c5ccccc5)C(C(=O)O)C4c4ccccc4)c3)ccc2N1 (stereo not drawn) [α-8, α-3-(3-(2-Oxo-1,2,3,4-tetrahydroquinolin-6-yl)phenox-ycarbonyl)-2,4-diphenyl-cyclobutane-1-carboxylic acid] | 0.59 ± 0.08 | 7.67 ± 0.71 | – | FABP5/3 SI (selectivity index) [3]: 13.0; FABP5/7 SI (selectivity index) [3]: 0.56; FABP7/3 SI (selectivity index) [5]: 11.6 and 23.2; FABP7/5 SI (selectivity index) [5]: 1.1 and 1.8
O=C1Cc2ccc(-c3ccccc3OC(=O)C3C(c4ccccc4)C(C(=O)O)C3c3ccccc3)cc2N1 (stereo not drawn) [α-2, α-3-(2-(2-Oxoindolin-6-yl)phenoxycarbonyl)-2,4-diphenylcyclobutane-1-carboxylic acid] | 0.29 ± 0.01 | 3.4 ± 0.41 | 0.12 ± 0.03 | FABP5/3 SI (selectivity index) [3]: 11.7; FABP5/7 SI (selectivity index) [3]: 0.41; FABP7/3 SI (selectivity index) [5]: 28.3; FABP7/5 SI (selectivity index) [5]: 2.4
O=C(O)C1C(c2ccccc2)C(C(=O)OCc2cccc3ccccc23)C1c1ccccc1 (stereo not drawn) [α-24] | 2.64 ± 0.01 | 51.2 ± 5.71 | 10.2 ± 1.42 | –
COc1ccccc1C1C(C(=O)O)C(c2ccccc2OC)C1C(=O)OC1Cc2ccccc2C1 (stereo not drawn) [α-16, α-3-(2,3-Dihydro-1H-inden-2-yloxycarbonyl)-2,4-bis(2-methoxyphenyl)cyclobutane-1-carboxylic acid] | – | 53.8 ± 7.28 | 21.8 ± 4.22 | effect on thermal hyperalgesia [6]: full reversal of hyperalgesia
COc1ccccc1C1C(C(=O)O)C(c2ccccc2OC)C1C(=O)Oc1ccccc1-c1ccc(C#N)cc1 (stereo not shown) [γ-105, γ-3-(4′-Cyano-1,1′-biphenyl-2-yloxycarbonyl)-2,4-bis(2-methoxyphenyl)cyclobutane-1-carboxylic acid] | 2.81 ± 0.57 | 3.39 ± 0.63 | 1 ± 0.17 | –
O=C(O)C1C(c2ccccc2)C(C(=O)Oc2cccc3ccccc23)C1c1ccccc1 (stereo not drawn) [L1, α-truxillic acid 1‑naphthyl ester] | – | – | – | Ki [1]: 2.7 ± 0.42 µM; Ki [2]: 0.45 ± 0.07 µM
COc1ccccc1C1[C@H](C(=O)O)[C@H](c2ccccc2OC)[C@H]1C(=O)Oc1cccc2ccccc12 (stereo partly shown) [L2] | – | – | – | Ki [1]: 0.69 ± 0.17 µM; Ki [2]: 0.67 ± 0.04 µM
COc1ccccc1C1C(C(=O)O)C(c2ccccc2OC)C1C(=O)OCc1cccc2ccccc12 (stereo not drawn) [α-23, α-3-(3-Naphthalen-1-ylmethoxycarbonyl)-2,4-bis(2-methoxyphenyl)cyclobutane-1-carboxylic acid] | 2.15 ± 0.17 | 52.6 ± 8.62 | 8.04 ± 0.71 | –
COc1ccccc1C1C(C(=O)O)C(c2ccccc2OC)C1C(=O)OCC1(O)c2ccccc2-c2ccccc21 (stereo not drawn) [α-26, α-3-(9-Hydroxy-9H-fluoren-9-ylmethoxycarbonyl)-2,4-bis(2-methoxyphenyl)cyclobutane-1-carboxylic acid] | 11.8 ± 1.64 | 54.7 ± 3.43 | 31 ± 2.47 | –
COc1ccccc1C1C(C(=O)O)C(c2ccccc2OC)C1C(=O)Oc1cccc(-c2cccc3c2OCCO3)c1 (stereo not drawn) [α-6, α-3-(3-(2,3-dihydrobenzo[b][1,4]dioxin-5-yl)phenoxycarbonyl)-2,4-bis(2-methoxyphenyl)cyclobutane-1-carboxylic acid] | 0.41 ± 0.15 | 4.02 ± 1.04 | 0.91 ± 0.03 | FABP5/3 SI (selectivity index) [3]: 9.8; FABP5/7 SI (selectivity index) [3]: 2.2; FABP7/3 SI (selectivity index) [5]: 4.4; FABP7/5 SI (selectivity index) [5]: 0.45
O=C(O)C1C(c2ccccc2)C(C(=O)Oc2cccc(-c3ccc4ccc(=O)[nH]c4c3)c2)C1c1ccccc1 (stereo not shown) [γ-108, γ-3-(3-(2-Oxo-1,2-dihydroquinolin-7-yl)phenoxycarbonyl)-2,4-diphenylcyclobutane-1-carboxylic acid] | 10.9 ± 2.81 | 4.02 ± 0.36 | 13.8 ± 1.3 | –
COc1ccccc1C1C(C(=O)O)C(c2ccccc2OC)C1C(=O)Oc1cccc(-c2ccc3c(c2)OCCO3)c1 (stereo not shown) [γ-17, γ-3-(3-(2,3-Dihydrobenzo[b][1,4]dioxin-6-yl)phenoxycarbonyl)-2,4-bis(2-methoxyphenyl)cyclobutane-1-carboxylic acid] | 3.69 ± 0.65 | 8.18 ± 2.67 | 5.12 ± 0.32 | –
COc1ccccc1C1C(C(=O)O)C(c2ccccc2OC)C1C(=O)OCC1(F)c2ccccc2-c2ccccc21 (stereo not drawn) [α-22, α-3-(9-Fluoro-9H-fluoren-9-yl)methoxycarbonyl-2,4-bis(2-methoxyphenyl)-cyclobutane-1-carboxylic acid] | 1.83 ± 0.27 | 25.9 ± 2.4 | 7.72 ± 1.2 | FABP5/3 SI (selectivity index) [3]: 14.2; FABP5/7 SI (selectivity index) [3]: 4.2
O=C1CCc2cc(-c3cccc(OC(=O)C4C(c5ccccc5)C(C(=O)O)C4c4ccccc4)c3)ccc2N1 (stereo not shown) [γ-10, γ-3-(3-(2-Oxo-1,2,3,4-tetrahydroquinolin-6-yl)phenoxycarbonyl)-2,4-diphenyl-cyclobutane-1-carboxylic acid] | 7.59 ± 1.11 | 4.07 ± 0.24 | 3.49 ± 0.49 | –
O=C(O)C1C(c2ccccc2)C(C(=O)Oc2ccccc2-c2ccc3c(c2)OCO3)C1c1ccccc1 (stereo not drawn) [α-11, α-3-(2-Benzo[d][1,3]dioxol-5-ylphenoxycarbonyl)-2,4-diphenylcyclobutane-1-carboxylic acid] | 0.79 ± 0.18 | 1.13 ± 0.15 | 0.32 ± 0.13 | FABP3/7 SI (selectivity index) ([4]; FABP3 over FABP7, from Ki values): 0.28; FABP7/3 SI (selectivity index) [5]: 3.5; FABP7/5 SI (selectivity index) [5]: 2.5
